Consider six compounds from patent US20160159861A1, “APJ Receptor Compounds” (priority 2013, published 2016).

pEC50: −log10 of the molar value. Where two headings read alike, the source gives them in different places. Peptide text beside a SMILES is read from it.

Common to all, as to type: cell-based
For data set [1], the target named is T1, human APJ receptor (hAPJ) (Homo sapiens, UniProt P35414).
T1 construct: expressed in transfected cells
T1 sequence (P35414 1-380): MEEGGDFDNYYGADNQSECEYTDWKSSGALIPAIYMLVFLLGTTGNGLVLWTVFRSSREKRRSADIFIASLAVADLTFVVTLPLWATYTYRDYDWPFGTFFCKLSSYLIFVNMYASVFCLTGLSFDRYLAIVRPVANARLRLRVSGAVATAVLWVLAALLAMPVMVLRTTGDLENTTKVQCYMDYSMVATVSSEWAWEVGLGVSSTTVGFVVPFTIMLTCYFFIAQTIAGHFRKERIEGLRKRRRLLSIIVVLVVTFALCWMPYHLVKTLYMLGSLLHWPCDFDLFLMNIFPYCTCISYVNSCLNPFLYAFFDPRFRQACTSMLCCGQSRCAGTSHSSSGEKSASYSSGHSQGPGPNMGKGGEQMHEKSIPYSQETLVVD
Briefly: HTRF cAMP assay: inhibition of NKH477-stimulated cAMP in HEK cells stably expressing hAPJ. Conditions: for Emax: HEK293, read-out: % IA, bound stated; for % IA (cAMP inhibition, hAPJ HEK): intrinsic activity; for Ranking: composite class of EC50 (hAPJ), % IA and % histamine or formal (+) charge; for inhibition of NKH477-stimulated increase in cAMP, dose dependent: concentration response curves, FIGS. 1 and 2, HEK cells stably expressing APJ. A digest of the protocol: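 HEK cells stably expressing hAPJ, induced with 1 nG/mL doxycycline and seeded overnight at 40 k/well. cAMP read by HTRF competitive immunoassay using cryptate-labeled anti-cAMP antibody and d2-labeled cAMP.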
On the technique in general: Time-resolved FRET reads energy transfer from a long-lived donor to a nearby acceptor.

The subject of data set [2] is rat peritoneal cells. Kind of data set: Ex vivo histamine release assay in rat peritoneal cells (vs. Compound 48/80). A digest of the protocol: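 Resident peritoneal cells were lavaged from male Sprague Dawley rats and kept in HBSS/20 mM HEPES/0.2% BSA at 25,000 cells/well. They were exposed for 30 min at room temperature to compound at 3 points (100, 10, 1 μM DMSO stocks, 1% DMSO final). Released histamine was measured by HTRF and normalised to total histamine after Triton lysis. Compound 48/80 was the reference.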

Data set [3] has as its target T2, APJ receptor (Homo sapiens, UniProt P35414).
T2 sequence (P35414 1-380): T1 sequence (P35414 1-380)
Kind of data set: DiscoveRx PathHunter β-arrestin recruitment assay. The note with it: for β-arrestin recruitment: dose dependent chemiluminescence, FIGS. 3A-3B; for Emax: read-out: β-arrestin Signaling Max Response. The source says: Activation of the β-Arrestin signaling pathway was monitored using the commercially available DiscoveRx PathHunter® assay. This assay employs a homogenous, non-imaging assay format called Enzyme Fragment Complementation (EFC) using β-galactosidase (β-Gal) as the functional reporter. […] EA is fused to β-Arrestin and ED is fused to the GPCR of interest. When the GPCR is activated and β-Arrestin is recruited to the receptor, ED and EA complementation occurs, restoring βGal activity which is measured using chemiluminescent PathHunter® Detection Reagent.
In general terms: Activated receptors often draw arrestin, which recruitment assays turn into a signal.

The target of data set [4] is CXCR4 receptor (Homo sapiens, UniProt P61073). Briefly: Activity at CXCR4 receptor (selectivity, Gi-coupled GPCR). The note with it: FIGS. 6A-6C, selectivity vs. hAPJ.
CXCR4 receptor, sequence (P61073 whole entry): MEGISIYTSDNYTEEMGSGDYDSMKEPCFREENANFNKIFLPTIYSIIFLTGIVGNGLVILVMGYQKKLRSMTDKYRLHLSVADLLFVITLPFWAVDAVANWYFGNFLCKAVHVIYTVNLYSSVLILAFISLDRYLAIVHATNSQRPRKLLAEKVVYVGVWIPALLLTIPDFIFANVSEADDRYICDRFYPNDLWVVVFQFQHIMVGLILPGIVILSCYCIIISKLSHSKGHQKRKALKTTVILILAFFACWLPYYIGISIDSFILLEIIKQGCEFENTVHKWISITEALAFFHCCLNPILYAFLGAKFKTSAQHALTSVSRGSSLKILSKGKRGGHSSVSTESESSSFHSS
The mark [5] stands for this setting: EC50 (cAMP inhibition, hAPJ HEK), Table 6, hAPJ HEK cells, NKH477-stimulated cAMP.
Where [6] appears, read: EC50 (hAPJ), inhibition of cAMP production, bound stated, HTRF cAMP Assay, per data of Table 6.
[7] abbreviates: HTRF cAMP Assay, per data of Table 6.
Where [8] appears, read: histamine release from rat peritoneal cells relative to Compound 48/80.
Where [9] appears, read: HTRF cAMP Assay, per data of Table 6, read-out: EC50 (hAPJ), inhibition of cAMP production, bound stated.
The mark [10] stands for this setting: Table 6, hAPJ HEK cells, NKH477-stimulated cAMP, read-out: EC50 (cAMP inhibition, hAPJ HEK).

With `CCCCCCCCCCCCCCCC(=O)N1CCC[C@H]1C(=O)N[C@H](C(=O)N[C@H](C(=O)N[C@@H](Cc1ccccc1)C(=O)N[C@@H](CCCNC(=N)N)C(=O)N[C@@H](CO)C(=O)N1CCC[C@H]1C(=O)N[C@@H](CO)C(=O)N[C@@H](CCC(=O)O)C(=O)N[C@H](CCCCN)C(=O)N[C@@H](CCCNC(=N)N)C(=O)N[C@@H](CCCNC(=N)N)C(=O)N[C@@H](CO)C(=O)N[C@@H](C)C(=O)N[C@@H](CC(=O)O)C(=O)N[C@H](C(=O)N[C@@H](Cc1ccccc1)C(=O)N[C@H](C(N)=O)[C@@H](C)CC)[C@@H](C)CC)C(C)C)[C@@H](C)O` [Compound 3] (HELM PEPTIDE1{[CCCCCCCCCCCCCCCC(=O)[*:2]].P.T.V.F.R.S.P.S.E.[dK].R.R.S.A.D.I.F.I.[am]}$$$$V2.0), the pEC50 is 7.89 in data set [1] (setting [5]), at least 7.60 in data set [1] (setting [6]) and 8.09 in data set [3]. In addition, the Emax in data set [1] (setting [7]) is at least 80%; in data set [3], 11%. In data set [1] (Table 6, hAPJ HEK cells), the “% IA (cAMP inhibition, hAPJ HEK)” value is 90%. Further, the Ranking entry in data set [1] is “**** (EC50≦25 nM (hAPJ), % IA≧80% and either % histamine>35% or formal (+) charge>1)”. The “Histamine (% vs. 48/80)” value in data set [2] (setting [8]) came to 64%. The “β-arrestin recruitment” value in data set [3] is given as “weakly engaged”.
As for `CCCCCCCCCCCCCCCC(=O)N[C@H](C(=O)N[C@H](C(=O)N[C@@H](Cc1ccccc1)C(=O)N[C@@H](CCCNC(=N)N)C(=O)N[C@@H](CO)C(=O)N[C@@H](CO)C(=O)N[C@@H](CCC(=O)O)C(=O)N[C@H](CCCCN)C(=O)N[C@@H](CCCNC(=N)N)C(=O)N[C@@H](CCCNC(=N)N)C(=O)N[C@@H](CO)C(=O)N[C@@H](C)C(=O)N[C@@H](CC(=O)O)C(=O)N[C@@H](CC(N)=O)C(=O)N[C@@H](Cc1ccccc1)C(=O)N[C@H](C(N)=O)[C@@H](C)CC)C(C)C)[C@@H](C)O` [Compound 18] (HELM PEPTIDE1{[CCCCCCCCCCCCCCCC(=O)[*:2]].T.V.F.R.S.S.E.[dK].R.R.S.A.D.N.F.I.[am]}$$$$V2.0), the Emax in data set [1] (setting [7]) was at least 80%. Further, the negative logarithm of the EC50 (pEC50) in data set [1] (setting [9]) was at least 7.60. Moreover, the pEC50 in data set [1] (setting [10]) is 7.82. Further, the “% IA (cAMP inhibition, hAPJ HEK)” value in data set [1] (Table 6, hAPJ HEK cells) stood at 117%. Further, in data set [1], the Ranking entry was “**** (EC50≦25 nM (hAPJ), % IA≧80% and either % histamine>35% or formal (+) charge>1)”; the “inhibition of NKH477-stimulated increase in cAMP, dose dependent” value (from here on “inhibition of NKH477-stimulated increase”) is given as “inhibited”. Moreover, in data set [4], the “activity at the CXCR4 receptor” value is on record as “lack of dose-responsive activity”.
For the compound `CCCCCCCCCCCCCCCC(=O)N[C@H](C(=O)N[C@H](C(=O)N[C@@H](Cc1ccccc1)C(=O)N[C@@H](CCCNC(=N)N)C(=O)N[C@@H](CO)C(=O)N[C@@H](CO)C(=O)N1CCC[C@H]1C(=O)N[C@@H](CCC(=O)O)C(=O)N[C@H](CCCCN)C(=O)N[C@@H](CCCNC(=N)N)C(=O)N[C@@H](CCCNC(=N)N)C(=O)N[C@@H](CO)C(=O)N[C@@H](C)C(=O)N[C@@H](CC(=O)O)C(=O)N[C@H](C(=O)N[C@@H](Cc1ccccc1)C(=O)N1CCC[C@H]1C(N)=O)[C@@H](C)CC)C(C)C)[C@@H](C)O` [Compound 26] (HELM PEPTIDE1{[CCCCCCCCCCCCCCCC(=O)[*:2]].T.V.F.R.S.S.P.E.[dK].R.R.S.A.D.I.F.P.[am]}$$$$V2.0), the Emax in data set [1] (setting [7]) was at least 80%; in data set [3], 46%. Further, the pEC50 is at least 7.60 in data set [1] (setting [9]); 7.96 in data set [1] (setting [10]); 7.22 in data set [3] (PathHunter chemiluminescence, read-out: β-arrestin Signaling EC50). Besides, the “% IA (cAMP inhibition, hAPJ HEK)” value in data set [1] (Table 6, hAPJ HEK cells) came out at 105%. Also, the Ranking result in data set [1] is “**** (EC50≦25 nM (hAPJ), % IA≧80% and either % histamine>35% or formal (+) charge>1)”. Further, in data set [1], the “inhibition of NKH477-stimulated increase” value is on record as “inhibited”. Further, in data set [2], the “Histamine (% vs. 48/80)” value is reported as 73%. Besides, the “β-arrestin recruitment” value in data set [3] was “weakly engaged”.
Take `CCCCCCCCCCCCCCCC(=O)N[C@H](C(=O)N[C@H](C(=O)N[C@@H](Cc1ccccc1)C(=O)N[C@@H](CCCNC(=N)N)C(=O)N[C@@H](CO)C(=O)N[C@@H](CO)C(=O)N[C@@H](CCC(=O)O)C(=O)N1CCC[C@H]1C(=O)N[C@H](CCCCN)C(=O)N[C@@H](CCCNC(=N)N)C(=O)N[C@@H](CCCNC(=N)N)C(=O)N[C@@H](CO)C(=O)N[C@@H](C)C(=O)N[C@@H](CC(=O)O)C(=O)N[C@H](C(=O)N[C@@H](Cc1ccccc1)C(=O)N[C@H](C(N)=O)[C@@H](C)CC)[C@@H](C)CC)C(C)C)[C@@H](C)O` [Compound 27] (HELM PEPTIDE1{[CCCCCCCCCCCCCCCC(=O)[*:2]].T.V.F.R.S.S.E.P.[dK].R.R.S.A.D.I.F.I.[am]}$$$$V2.0): the negative-log EC50 (pEC50) in data set [1] (setting [5]) is 8.15. This compound had a pEC50 in data set [1] (setting [6]) of at least 7.60. The Emax in data set [1] (setting [7]) was at least 80%. In addition, in data set [1] (Table 6, hAPJ HEK cells), the “% IA (cAMP inhibition, hAPJ HEK)” value is 105%. In data set [1], the Ranking entry is “**** (EC50≦25 nM (hAPJ), % IA≧80% and either % histamine>35% or formal (+) charge>1)”; the “inhibition of NKH477-stimulated increase” value is reported as “inhibited”. The “Histamine (% vs. 48/80)” value in data set [2] (setting [8]) was 67%. For the same compound, in data set [3], the negative logarithm of the EC50 (pEC50) is 8.09, the “β-arrestin recruitment” value is reported as “weakly engaged” and the Emax turned out to be 23.7%.
As to `CCCCCCCCCCCCCCCC(=O)N1CCC[C@@H]1C(=O)N[C@H](C(=O)N[C@H](C(=O)N[C@@H](Cc1ccccc1)C(=O)N[C@@H](CCCNC(=N)N)C(=O)N[C@@H](CO)C(=O)N1CCC[C@@H]1C(=O)N[C@@H](CO)C(=O)N[C@@H](CCC(=O)O)C(=O)N[C@H](CCCCN)C(=O)N[C@@H](CCCNC(=N)N)C(=O)N[C@@H](CCCNC(=N)N)C(=O)N[C@@H](CO)C(=O)N[C@@H](C)C(=O)N[C@@H](CC(=O)O)C(=O)N[C@H](C(=O)N[C@@H](Cc1ccccc1)C(N)=O)[C@@H](C)CC)C(C)C)[C@@H](C)O` [Compound 29, pTVFRSpSEkRRSADIF] (HELM PEPTIDE1{[CCCCCCCCCCCCCCCC(=O)[*:2]].[dP].T.V.F.R.S.[dP].S.E.[dK].R.R.S.A.D.I.F.[am]}$$$$V2.0), the Emax in data set [1] (setting [7]) was at least 80%. The negative-log EC50 (pEC50) in data set [1] (setting [9]) is at least 7.60. Further, the pEC50 in data set [1] (setting [10]) was 7.70. The “% IA (cAMP inhibition, hAPJ HEK)” value in data set [1] (Table 6, hAPJ HEK cells) amounted to 80%. Moreover, in data set [1], the Ranking entry was “**** (EC50≦25 nM (hAPJ), % IA≧80% and either % histamine>35% or formal (+) charge>1)”; the “inhibition of NKH477-stimulated increase” value is reported as “inhibited”. In addition, in data set [2], the “Histamine (% vs. 48/80)” value came out at 47%.
For `CCCCCCCCCCCCCCCC(=O)N1CCC[C@H]1C(=O)N[C@H](CCCCN)C(=O)N[C@@H](CCCNC(=N)N)C(=O)N[C@@H](CCCNC(=N)N)C(=O)N[C@@H](CO)C(=O)N[C@@H](C)C(=O)N[C@@H](CC(=O)O)C(=O)N[C@H](C(=O)N[C@@H](Cc1ccccc1)C(=O)N[C@H](C(=O)N1CCC[C@H]1C(N)=O)[C@@H](C)CC)[C@@H](C)CC` [Compound 30] (HELM PEPTIDE1{[CCCCCCCCCCCCCCCC(=O)[*:2]].P.[dK].R.R.S.A.D.I.F.I.P.[am]}$$$$V2.0), the Emax in data set [1] (setting [7]) was at least 80%. Further, the negative-log EC50 (pEC50) in data set [1] (setting [9]) was at least 7.60. The negative-log EC50 (pEC50) in data set [1] (setting [10]) was 7.80. In addition, in data set [1] (Table 6, hAPJ HEK cells), the “% IA (cAMP inhibition, hAPJ HEK)” value is 86%. In data set [1], the Ranking result is “***** (EC50≦25 nM (hAPJ), % IA≧80% and either % histamine≦35% or formal (+) charge≦1)”; the “inhibition of NKH477-stimulated increase” value is given as “inhibited”. For the same compound, in data set [2], the “Histamine (% vs. 48/80)” value was determined as 34%.

The pEC50 is the EC50 on a negative log10 scale, so that one unit is a factor of ten.
